Publication PMC10620772, “Design, synthesis, and biological evaluation of new pyrimidine-5-carbonitrile derivatives as novel anti-cancer, dual EGFR^WT/COX-2 inhibitors with docking studies” (RSC Advances, 2023)

Columns and labels:
Assay type in all cases: cell-based, human
CCRF-CEM = assay: NCI60 antitumor screening; details: 10 μM one-dose
HL-60(TB) = assay: NCI60 antitumor screening; details: 10 μM one-dose
K-562 = assay: NCI60 antitumor screening; details: 10 μM one-dose
MOLT-4 = assay: NCI60 antitumor screening; details: 10 μM one-dose
RPMI-8226 = assay: NCI60 antitumor screening; details: 10 μM one-dose
SR = assay: NCI60 antitumor screening; details: 10 μM one-dose
A549/ATCC = assay: NCI60 antitumor screening; details: 10 μM one-dose
EKVX = assay: NCI60 antitumor screening; details: 10 μM one-dose
HOP-62 = assay: NCI60 antitumor screening; details: 10 μM one-dose
HOP-92 = assay: NCI60 antitumor screening; details: 10 μM one-dose
NCI-H226 = assay: NCI60 antitumor screening; details: 10 μM one-dose
NCI-H23 = assay: NCI60 antitumor screening; details: 10 μM one-dose
NCI-H322M = assay: NCI60 antitumor screening; details: 10 μM one-dose
NCI-H460 = assay: NCI60 antitumor screening; details: 10 μM one-dose
NCI-H522 = assay: NCI60 antitumor screening; details: 10 μM one-dose
COLO 205 = assay: NCI60 antitumor screening; details: 10 μM one-dose
HCC-2998 = assay: NCI60 antitumor screening; details: 10 μM one-dose
HCT-116 = assay: NCI60 antitumor screening; details: 10 μM one-dose
HCT-15 = assay: NCI60 antitumor screening; details: 10 μM one-dose
HT29 = assay: NCI60 antitumor screening; details: 10 μM one-dose
KM12 = assay: NCI60 antitumor screening; details: 10 μM one-dose
SW-620 = assay: NCI60 antitumor screening; details: 10 μM one-dose
SF-268 = assay: NCI60 antitumor screening; details: 10 μM one-dose
SF-295 = assay: NCI60 antitumor screening; details: 10 μM one-dose
SF-539 = assay: NCI60 antitumor screening; details: 10 μM one-dose
SNB-19 = assay: NCI60 antitumor screening; details: 10 μM one-dose
SNB-75 = assay: NCI60 antitumor screening; details: 10 μM one-dose
U251 = assay: NCI60 antitumor screening; details: 10 μM one-dose
LOX IMVI = assay: NCI60 antitumor screening; details: 10 μM one-dose
MALME-3M = assay: NCI60 antitumor screening; details: 10 μM one-dose
M14 = assay: NCI60 antitumor screening; details: 10 μM one-dose
MDA-MB-435 = assay: NCI60 antitumor screening; details: 10 μM one-dose
SK-MEL-2 = assay: NCI60 antitumor screening; details: 10 μM one-dose
SK-MEL-28 = assay: NCI60 antitumor screening; details: 10 μM one-dose
SK-MEL-5 = assay: NCI60 antitumor screening; details: 10 μM one-dose
UACC-257 = assay: NCI60 antitumor screening; details: 10 μM one-dose
UACC-62 = assay: NCI60 antitumor screening; details: 10 μM one-dose
IGROV1 = assay: NCI60 antitumor screening; details: 10 μM one-dose
OVCAR-3 = assay: NCI60 antitumor screening; details: 10 μM one-dose
OVCAR-4 = assay: NCI60 antitumor screening; details: 10 μM one-dose
OVCAR-5 = assay: NCI60 antitumor screening; details: 10 μM one-dose
OVCAR-8 = assay: NCI60 antitumor screening; details: 10 μM one-dose
NCI/ADR-RES = assay: NCI60 antitumor screening; details: 10 μM one-dose
SK-OV-3 = assay: NCI60 antitumor screening; details: 10 μM one-dose
786–0 = assay: NCI60 antitumor screening; details: 10 μM one-dose
A498 = assay: NCI60 antitumor screening; details: 10 μM one-dose
ACHN = assay: NCI60 antitumor screening; details: 10 μM one-dose
CAKI-1 = assay: NCI60 antitumor screening; details: 10 μM one-dose
RXF 393 = assay: NCI60 antitumor screening; details: 10 μM one-dose
SN12C = assay: NCI60 antitumor screening; details: 10 μM one-dose
TK-10 = assay: NCI60 antitumor screening; details: 10 μM one-dose
UO-31 = assay: NCI60 antitumor screening; details: 10 μM one-dose
PC-3 = assay: NCI60 antitumor screening; details: 10 μM one-dose
DU-145 = assay: NCI60 antitumor screening; details: 10 μM one-dose
MCF7 = assay: NCI60 antitumor screening; details: 10 μM one-dose
MDA-MB-231/ATCC = assay: NCI60 antitumor screening; details: 10 μM one-dose
HS 578T = assay: NCI60 antitumor screening; details: 10 μM one-dose
BT-549 = assay: NCI60 antitumor screening; details: 10 μM one-dose
T-47D = assay: NCI60 antitumor screening; details: 10 μM one-dose
MDA-MB-468 = assay: NCI60 antitumor screening; details: 10 μM one-dose
NCI60 cell lines panel = assay: NCI60 antitumor screening, full panel; details: 10 μM one-dose, mean over NCI60
Method in brief: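 Percent growth inhibition (GI%) was recorded for each of the NCI60 lines, spanning leukaemia, lung, colon, CNS, melanoma, ovarian, renal, prostate and breast cancers, after exposure to compounds at one concentration, 10 μM.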

Compound `Cc1ccc(CSc2nc(Cl)c(C#N)c(-c3ccc(F)cc3)n2)cc1` [3d, 4-Chloro-6-(4-fluorophenyl)-2-((4-methylbenzyl)thio)pyrimidine-5-carbonitrile] has a GI% (CCRF-CEM) of 29.71%, a GI% (HL-60(TB)) of 51.77% and a GI% (K-562) of 42.83%. For the same compound, the GI% (MOLT-4) was 29.08%, the GI% (RPMI-8226) was 25.03% and the GI% (SR) was “— (GI% < 10)”. For the same compound, the GI% (A549/ATCC) was 16.81%, the GI% (EKVX) was 20.92% and the GI% (HOP-62) was “— (GI% < 10)”. The GI% (HOP-92) was 34.25%, the GI% (NCI-H226) was 37.93% and the GI% (NCI-H23) was “— (GI% < 10)”. The GI% (NCI-H322M) was “— (GI% < 10)”, the GI% (NCI-H460) was “— (GI% < 10)” and the GI% (NCI-H522) was 29.73%. For the same compound, the GI% (COLO 205) was “— (GI% < 10)”, the GI% (HCC-2998) was “— (GI% < 10)” and the GI% (HCT-116) was 25.73%. It also gave a GI% (HCT-15) of 24.97%, a GI% (HT29) of 51.51% and a GI% (KM12) of 19.05%. The GI% (SW-620) was 11.21%, the GI% (SF-268) was 12.95% and the GI% (SF-295) was 11.51%. The GI% (SF-539) was 15.58%, the GI% (SNB-19) was “— (GI% < 10)” and the GI% (SNB-75) was “— (GI% < 10)”. For the same compound, the GI% (U251) was 15.75%, the GI% (LOX IMVI) was “— (GI% < 10)” and the GI% (MALME-3M) was “— (GI% < 10)”. For the same compound, the GI% (M14) was “— (GI% < 10)”, the GI% (MDA-MB-435) was “— (GI% < 10)” and the GI% (SK-MEL-2) was “— (GI% < 10)”. For the same compound, the GI% (SK-MEL-28) was “— (GI% < 10)”, the GI% (SK-MEL-5) was 15.98% and the GI% (UACC-257) was “— (GI% < 10)”. For the same compound, the GI% (UACC-62) was 17.58%, the GI% (IGROV1) was “— (GI% < 10)” and the GI% (OVCAR-3) was “— (GI% < 10)”. For the same compound, the GI% (OVCAR-4) was 14.97%, the GI% (OVCAR-5) was “— (GI% < 10)” and the GI% (OVCAR-8) was “— (GI% < 10)”. For the same compound, the GI% (NCI/ADR-RES) was 14.93%, the GI% (SK-OV-3) was “— (GI% < 10)” and the GI% (786–0) was 12.30%. The GI% (A498) was “— (GI% < 10)”, the GI% (ACHN) was “— (GI% < 10)” and the GI% (CAKI-1) was 16.99%. For the same compound, the GI% (RXF 393) was 12.49%, the GI% (SN12C) was 27.59% and the GI% (TK-10) was “— (GI% < 10)”. For the same compound, the GI% (UO-31) was 17.01%, the GI% (PC-3) was 35.47% and the GI% (DU-145) was 18.41%. For the same compound, the GI% (MCF7) was 12.55%, the GI% (MDA-MB-231/ATCC) was “— (GI% < 10)” and the GI% (HS 578T) was “— (GI% < 10)”. For the same compound, the GI% (BT-549) was 18.08%, the GI% (T-47D) was 46.84% and the GI% (MDA-MB-468) was “— (GI% < 10)”. The “Mean GI%” value (NCI60 cell lines panel) was 12.62%.
With `N#Cc1c(-c2ccc(F)cc2)nc(SCc2ccccc2)nc1N1CCOCC1` [4a, 2-(Benzylthio)-4-(4-fluorophenyl)-6-morpholinopyrimidine-5-carbonitrile] the GI% (CCRF-CEM) was “— (GI% < 10)”, the GI% (HL-60(TB)) was 31.31% and the GI% (K-562) was 16.46%. The GI% (MOLT-4) was “— (GI% < 10)”, the GI% (RPMI-8226) was “— (GI% < 10)” and the GI% (SR) was “— (GI% < 10)”. For the same compound, the GI% (A549/ATCC) was “— (GI% < 10)”, the GI% (EKVX) was “— (GI% < 10)” and the GI% (HOP-62) was “— (GI% < 10)”. The GI% (HOP-92) was 15.08%, the GI% (NCI-H226) was “— (GI% < 10)” and the GI% (NCI-H23) was “— (GI% < 10)”. The GI% (NCI-H322M) was “— (GI% < 10)”, the GI% (NCI-H460) was “— (GI% < 10)” and the GI% (NCI-H522) was 16.81%. The GI% (COLO 205) was “— (GI% < 10)”, the GI% (HCC-2998) was “— (GI% < 10)” and the GI% (HCT-116) was 10.37%. For the same compound, the GI% (HCT-15) was “— (GI% < 10)”, the GI% (HT29) was “— (GI% < 10)” and the GI% (KM12) was “— (GI% < 10)”. The GI% (SW-620) was “— (GI% < 10)”, the GI% (SF-268) was “— (GI% < 10)” and the GI% (SF-295) was “— (GI% < 10)”. The GI% (SF-539) was 16.91%, the GI% (SNB-19) was “— (GI% < 10)” and the GI% (SNB-75) was “— (GI% < 10)”. For the same compound, the GI% (U251) was “— (GI% < 10)”, the GI% (LOX IMVI) was “— (GI% < 10)” and the GI% (MALME-3M) was “— (GI% < 10)”. For the same compound, the GI% (M14) was “— (GI% < 10)”, the GI% (MDA-MB-435) was “— (GI% < 10)” and the GI% (SK-MEL-2) was “— (GI% < 10)”. For the same compound, the GI% (SK-MEL-28) was “— (GI% < 10)”, the GI% (SK-MEL-5) was “— (GI% < 10)” and the GI% (UACC-257) was “— (GI% < 10)”. The GI% (UACC-62) was 13.24%, the GI% (IGROV1) was “— (GI% < 10)” and the GI% (OVCAR-3) was “— (GI% < 10)”. The GI% (OVCAR-4) was “— (GI% < 10)”, the GI% (OVCAR-5) was “— (GI% < 10)” and the GI% (OVCAR-8) was 21.20%. The GI% (NCI/ADR-RES) was 10.32%, the GI% (SK-OV-3) was “— (GI% < 10)” and the GI% (786–0) was “— (GI% < 10)”. For the same compound, the GI% (A498) was “— (GI% < 10)”, the GI% (ACHN) was “— (GI% < 10)” and the GI% (CAKI-1) was “— (GI% < 10)”. For the same compound, the GI% (RXF 393) was “— (GI% < 10)”, the GI% (SN12C) was “— (GI% < 10)” and the GI% (TK-10) was “— (GI% < 10)”. The GI% (UO-31) was “— (GI% < 10)”, the GI% (PC-3) was “— (GI% < 10)” and the GI% (DU-145) was “— (GI% < 10)”. For the same compound, the GI% (MCF7) was “— (GI% < 10)”, the GI% (MDA-MB-231/ATCC) was 10.65% and the GI% (HS 578T) was 19.87%. The GI% (BT-549) was 19.15%, the GI% (T-47D) was 15.89% and the GI% (MDA-MB-468) was “— (GI% < 10)”. For the same compound, the “Mean GI%” value (NCI60 cell lines panel) was “— (GI% < 10)”.
